Source: ChEMBL document CHEMBL1150937, “Aeruginosin 103-A, a thrombin inhibitor from the cyanobacterium Microcystis viridis” (J Nat Prod, 1998)
Values after ≈ are worked out from the molar mass of the structure shown.

Legend:
[1] = Inhibition of trypsin
Prothrombin = Prothrombin (Homo sapiens, UniProt P00734); assay: Inhibition of thrombin
Plasminogen = Plasminogen (Homo sapiens, UniProt P00747); assay: Inhibition of plasmin
Plasminogen, sequence (P00747 97-580 limits assumed): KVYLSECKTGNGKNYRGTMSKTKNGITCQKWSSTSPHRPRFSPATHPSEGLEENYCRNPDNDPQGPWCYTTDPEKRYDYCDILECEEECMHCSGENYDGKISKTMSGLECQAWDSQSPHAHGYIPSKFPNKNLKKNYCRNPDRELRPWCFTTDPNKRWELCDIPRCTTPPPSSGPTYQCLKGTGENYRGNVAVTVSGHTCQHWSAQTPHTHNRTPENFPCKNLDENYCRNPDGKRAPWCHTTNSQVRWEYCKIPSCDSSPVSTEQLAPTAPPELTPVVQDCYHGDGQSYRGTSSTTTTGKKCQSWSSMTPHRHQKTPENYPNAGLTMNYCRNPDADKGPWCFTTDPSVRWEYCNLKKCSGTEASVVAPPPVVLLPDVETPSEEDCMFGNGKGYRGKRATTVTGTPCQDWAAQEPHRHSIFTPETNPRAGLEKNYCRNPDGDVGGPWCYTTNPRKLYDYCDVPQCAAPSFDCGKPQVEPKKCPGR
Plasminogen, sequence (P00747 581-810 limits assumed): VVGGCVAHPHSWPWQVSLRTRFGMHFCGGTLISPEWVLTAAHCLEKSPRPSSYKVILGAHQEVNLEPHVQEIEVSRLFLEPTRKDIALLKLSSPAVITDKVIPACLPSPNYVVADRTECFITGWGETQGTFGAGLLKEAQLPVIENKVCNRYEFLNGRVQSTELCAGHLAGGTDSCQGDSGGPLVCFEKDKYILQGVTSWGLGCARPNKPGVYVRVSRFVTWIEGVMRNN

IC50 [1]: 51 µg/mL (≈ 74.9 µM)
IC50 (Prothrombin): 13.2 µM
IC50 (Plasminogen): 99.9 µM
SMILES: CCO[C@@H]1[C@@H](NC(=O)C2CC3CCC(O)CC3N2C(=O)[C@@H](Cc2ccc(O)cc2)NC(=O)[C@H](O)Cc2ccc(O)cc2)CCCN1C(=N)N (stereo partly drawn)
